Data reported in US11660303B2, “2-phenylimidazo[4,5-b]pyridin-7-amine derivates useful as inhibitors of mammalian tyrosine kinase ROR1 activity” (KANCERA AB, priority 2016, dated 2023).

Legend:
Type in all cases: cell-based
RC-KB = assay: MTT cytotoxicity assay, RC-KB; conditions: Diffuse large B-cell lymphoma (DLBCL), incubation 48 h
Experimental: (§1) The MTT assay (Sigma-Aldrich) was used to measure cytotoxic capability of the ROR1 tyrosine kinase inhibitors (ROR1-TKI). Briefly, 2×10^4 cancer cells were incubated in triplicates in 200 μL of RPMI-1640 containing 10% FCS in 96 well plates. ROR1-TKI (dissolved in DMSO), were added to the cells. Cells treated with DMSO were used as negative control. Cells were incubated for 48, 72 or 96 h. An amount of 20 μL MTT solution was added and the cell suspension was incubated for 4 h at 37 degrees C. The reaction was stopped by adding 100 μL MTT solvent (10% SDS in 0.01 M HCl) and was incubated for further 2-4 h. The plate was then read by a microplate reader at 570 nm.
(§2) Results, in terms of IC50 (μM), are shown in Table 4 for a representative compound of the invention, viz. Example 172.

SUDHL4 = assay: MTT cytotoxicity assay, SUDHL4; conditions: Homo sapiens, SU-DHL-4, SUDHL4, Diffuse large B-cell lymphoma (DLBCL), incubation 48 h
Experimental: as §1, §2

HDLM2 = assay: MTT cytotoxicity assay, HDLM2; conditions: Homo sapiens, HDLM-2, HDLM2, Hodgkin’s Lymphoma (HL), incubation 48 h
Experimental: as §1, §2

H82 = assay: Alamar Blue cell viability assay, H82; conditions: Homo sapiens, NCI-H82; H82, Small cell lung cancer, alamarBlue, incubation 72 h
Experimental: (§3) Alamar Blue Cell Viability Assay
(§4) Cells were plated 12 hours prior to start of drug treatment, which lasted for 72 hours for all cytotoxicity experiments. Cell viability was estimated by alamarBlue™ Cell Viability Reagent (ThermoFisher, Waltham, Mass.) per manufacturer's instructions.
as §2

H146 = assay: Alamar Blue cell viability assay, H146; conditions: Homo sapiens, NCI-H146; H146, Small cell lung cancer, alamarBlue, incubation 72 h
Experimental: as §3, §4, §2

H187 = assay: Alamar Blue cell viability assay, H187; conditions: Homo sapiens, NCI-H187; H187, Small cell lung cancer, alamarBlue, incubation 72 h
Experimental: as §3, §4, §2

H209 = assay: Alamar Blue cell viability assay, H209; conditions: Homo sapiens, NCI-H209; H209, Small cell lung cancer, alamarBlue, incubation 72 h
Experimental: as §3, §4, §2

H1417 = assay: Alamar Blue cell viability assay, H1417; conditions: Homo sapiens, NCI-H1417; H1417, Small cell lung cancer, alamarBlue, incubation 72 h
Experimental: as §3, §4, §2

H1963 = assay: Alamar Blue cell viability assay, H1963; conditions: Homo sapiens, NCI-H1963; H1963, Small cell lung cancer, alamarBlue, incubation 72 h
Experimental: as §3, §4, §2

H23 = assay: MTT cytotoxicity assay, H23; conditions: Homo sapiens, NCI-H23, H23, Non-small cell lung cancer, incubation 72 h
Experimental: as §1, §2

SEM cells = assay: Flow cytometry Annexin V/PI apoptosis assay, SEM; conditions: B-cell acute lymphoblastic leukemia (B-ALL), incubation 48 h
Experimental: (§5) Flow Cytometry Annexin V/PI Apoptosis Assay
(§6) An amount of 1 ml (10^5 cells/mL) of cells were seeded in each well of 6-well plates with and without compounds for 48 h. Cells were collected, washed with PBS, suspended in 100 μL of Annexin-V binding buffer (BD Biosciences) containing FITC-conjugated Annexin-V and PI (BD Biosciences) and incubated at room temperature in the dark for 20 min. After 20 min of incubation, 150 μL Annexin-V binding buffer was added. Viable cells were identified as the double negative Annexin-V and PI population. Samples were analyzed by a FACS Canto II Flow-cytometer (BD Biosciences).
as §2

Reh = assay: Flow cytometry Annexin V/PI apoptosis assay, Reh; conditions: Homo sapiens, Non-T-cell non-B-cell-acute lymphoblastic leukemia, incubation 48 h
Experimental: as §5, §6, §2

SupB15 [1] = assay: MTT cytotoxicity assay, SupB15; conditions: Homo sapiens, SUP-B15, SupB15, B-cell acute lymphoblastic leukemia (B-ALL), incubation 48 h
Experimental: as §1, §2

SupB15 [2] = assay: Flow cytometry Annexin V/PI apoptosis assay, SupB15; conditions: Homo sapiens, SUP-B15, SupB15, B-cell acute lymphoblastic leukemia (B-ALL), incubation 48 h
Experimental: as §5, §6, §2

SKOV3 = assay: MTT cytotoxicity assay, SKOV3; conditions: Homo sapiens, SK-OV-3, SKOV3, Ovarian cancer (OC), incubation 48 h
Experimental: as §1, §2

A2780 = assay: Flow cytometry Annexin V/PI apoptosis assay, A2780; conditions: Homo sapiens, A2780, Ovarian cancer (OC), incubation 48 h
Experimental: as §5, §6, §2

Z138 = assay: MTT cytotoxicity assay, Z138; conditions: Homo sapiens, Z-138, Z138, Mantle Cell Lymphoma (MCL), incubation 96 h
Experimental: as §1, §2

Mino = assay: MTT cytotoxicity assay, Mino; conditions: Homo sapiens, Mantle Cell Lymphoma (MCL), incubation 96 h
Experimental: as §1, §2

Kelly = assay: MTT cytotoxicity assay, Kelly; conditions: Neuroblastoma, incubation 48 h
Experimental: as §1, §2

MEC-2 = assay: MTT cytotoxicity assay, MEC-2; conditions: MEC2, MEC-2, CLL cell line, DSMZ bank, (ACC 500), incubation 48 h
Experimental: as §1, §2

CCOCCN1CCN(c2ccc(-c3nc4c(NC5CCN(CC)CC5)c(Br)cnc4[nH]3)cc2)CC1 [Example 172, 6-Bromo-2-{4-[4-(2-ethoxyethyl)piperazin-1-yl]phenyl}-N-(1-ethylpiperidin-4-yl)-3H-imidazo[4,5-b]pyridin-7-amine]
IC50 (RC-KB): 100 nM | IC50 (SUDHL4): 50 nM | IC50 (HDLM2): 50 nM | IC50 (H82): 410 nM | IC50 (H146): 230 nM | IC50 (H187): 230 nM | IC50 (H209): 240 nM | IC50 (H1417): 540 nM | IC50 (H1963): 200 nM | IC50 (H23): 150 nM | IC50 (SEM cells): 31 nM | IC50 (Reh): 41 nM | IC50 (SupB15 [1]): 50 nM | IC50 (SupB15 [2]): 66 nM | IC50 (SKOV3): 250 nM | IC50 (A2780): 270 nM | IC50 (Z138): 250 nM | IC50 (Mino): 50 nM | IC50 (Kelly): 80 nM | IC50 (MEC-2): 110 nM
